Molecules are shown by their SMILES.

The target in this test is T1, human Cav2.2 (composed of the subunits α1, β3 and α2δ) (Homo sapiens, UniProt Q00975).
T1 construct: expressed in transfected cells
T1 sequence (Q00975 whole entry): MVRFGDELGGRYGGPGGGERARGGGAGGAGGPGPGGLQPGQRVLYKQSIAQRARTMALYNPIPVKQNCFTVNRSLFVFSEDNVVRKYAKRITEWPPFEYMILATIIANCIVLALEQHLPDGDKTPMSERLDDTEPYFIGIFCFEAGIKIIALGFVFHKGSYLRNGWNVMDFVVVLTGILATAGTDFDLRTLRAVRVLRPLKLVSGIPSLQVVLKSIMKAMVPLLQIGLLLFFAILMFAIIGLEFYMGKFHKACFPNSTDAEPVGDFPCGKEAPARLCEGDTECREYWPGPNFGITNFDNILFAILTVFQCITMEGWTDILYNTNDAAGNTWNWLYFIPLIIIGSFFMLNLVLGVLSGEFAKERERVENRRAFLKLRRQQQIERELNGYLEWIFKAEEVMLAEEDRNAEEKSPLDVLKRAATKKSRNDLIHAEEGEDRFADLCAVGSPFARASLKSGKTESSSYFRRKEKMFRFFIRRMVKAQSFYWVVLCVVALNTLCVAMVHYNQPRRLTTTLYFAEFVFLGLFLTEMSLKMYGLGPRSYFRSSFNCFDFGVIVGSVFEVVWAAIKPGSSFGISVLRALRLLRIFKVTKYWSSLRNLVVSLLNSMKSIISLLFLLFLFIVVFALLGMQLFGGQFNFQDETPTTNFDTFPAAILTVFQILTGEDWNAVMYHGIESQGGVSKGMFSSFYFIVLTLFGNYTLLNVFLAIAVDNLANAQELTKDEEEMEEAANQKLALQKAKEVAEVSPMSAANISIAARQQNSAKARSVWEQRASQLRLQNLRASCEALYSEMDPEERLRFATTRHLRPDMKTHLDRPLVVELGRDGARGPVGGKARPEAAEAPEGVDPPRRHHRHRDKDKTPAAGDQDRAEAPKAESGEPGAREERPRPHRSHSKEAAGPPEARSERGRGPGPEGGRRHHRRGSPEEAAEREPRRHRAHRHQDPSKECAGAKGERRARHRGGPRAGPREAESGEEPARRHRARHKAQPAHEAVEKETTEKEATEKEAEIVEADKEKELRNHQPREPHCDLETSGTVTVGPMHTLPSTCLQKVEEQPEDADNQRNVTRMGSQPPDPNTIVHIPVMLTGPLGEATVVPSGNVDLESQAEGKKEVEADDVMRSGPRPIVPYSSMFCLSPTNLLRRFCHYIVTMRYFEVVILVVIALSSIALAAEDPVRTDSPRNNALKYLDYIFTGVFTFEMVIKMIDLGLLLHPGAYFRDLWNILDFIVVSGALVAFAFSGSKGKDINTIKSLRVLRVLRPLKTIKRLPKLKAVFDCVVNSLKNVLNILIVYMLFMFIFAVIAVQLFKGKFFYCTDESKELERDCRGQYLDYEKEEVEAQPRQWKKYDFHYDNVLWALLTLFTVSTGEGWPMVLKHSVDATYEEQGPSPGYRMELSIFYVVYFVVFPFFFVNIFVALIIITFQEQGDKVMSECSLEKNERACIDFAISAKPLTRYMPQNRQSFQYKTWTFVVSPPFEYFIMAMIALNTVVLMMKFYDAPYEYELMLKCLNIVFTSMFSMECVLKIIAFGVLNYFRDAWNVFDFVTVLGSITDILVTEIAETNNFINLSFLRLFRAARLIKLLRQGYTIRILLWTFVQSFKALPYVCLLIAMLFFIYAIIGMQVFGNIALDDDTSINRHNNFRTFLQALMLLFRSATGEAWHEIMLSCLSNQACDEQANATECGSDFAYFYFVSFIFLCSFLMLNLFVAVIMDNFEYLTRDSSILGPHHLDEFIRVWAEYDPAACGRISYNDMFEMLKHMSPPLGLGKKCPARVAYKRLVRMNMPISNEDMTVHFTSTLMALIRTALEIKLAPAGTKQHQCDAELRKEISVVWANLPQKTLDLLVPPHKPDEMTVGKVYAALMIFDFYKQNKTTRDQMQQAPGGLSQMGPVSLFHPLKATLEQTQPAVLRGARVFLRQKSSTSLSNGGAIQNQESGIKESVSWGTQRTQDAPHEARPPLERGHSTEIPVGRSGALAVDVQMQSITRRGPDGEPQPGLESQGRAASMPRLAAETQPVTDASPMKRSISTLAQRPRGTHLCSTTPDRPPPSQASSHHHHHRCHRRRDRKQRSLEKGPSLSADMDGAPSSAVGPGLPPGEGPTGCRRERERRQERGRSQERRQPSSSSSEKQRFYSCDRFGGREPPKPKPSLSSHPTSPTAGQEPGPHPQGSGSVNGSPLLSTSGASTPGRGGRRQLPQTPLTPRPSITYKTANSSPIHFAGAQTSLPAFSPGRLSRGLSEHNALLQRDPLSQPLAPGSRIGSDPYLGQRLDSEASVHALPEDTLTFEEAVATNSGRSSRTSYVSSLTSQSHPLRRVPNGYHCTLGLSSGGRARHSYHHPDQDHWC
T1 sequence (P54284 whole entry partner): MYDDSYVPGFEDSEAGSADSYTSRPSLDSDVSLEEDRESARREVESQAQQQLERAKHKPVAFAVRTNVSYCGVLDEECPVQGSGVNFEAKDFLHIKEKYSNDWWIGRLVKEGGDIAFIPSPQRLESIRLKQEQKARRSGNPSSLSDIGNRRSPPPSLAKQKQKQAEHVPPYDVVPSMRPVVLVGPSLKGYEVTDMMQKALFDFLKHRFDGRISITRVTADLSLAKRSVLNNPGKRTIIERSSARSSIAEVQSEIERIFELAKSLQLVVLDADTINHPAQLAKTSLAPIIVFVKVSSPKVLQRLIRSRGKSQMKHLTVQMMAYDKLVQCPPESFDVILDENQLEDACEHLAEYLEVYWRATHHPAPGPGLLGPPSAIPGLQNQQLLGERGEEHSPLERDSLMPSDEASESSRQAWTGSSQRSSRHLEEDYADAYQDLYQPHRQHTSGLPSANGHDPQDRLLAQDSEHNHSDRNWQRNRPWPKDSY
T1 sequence (P54289 25-946 partner limits assumed): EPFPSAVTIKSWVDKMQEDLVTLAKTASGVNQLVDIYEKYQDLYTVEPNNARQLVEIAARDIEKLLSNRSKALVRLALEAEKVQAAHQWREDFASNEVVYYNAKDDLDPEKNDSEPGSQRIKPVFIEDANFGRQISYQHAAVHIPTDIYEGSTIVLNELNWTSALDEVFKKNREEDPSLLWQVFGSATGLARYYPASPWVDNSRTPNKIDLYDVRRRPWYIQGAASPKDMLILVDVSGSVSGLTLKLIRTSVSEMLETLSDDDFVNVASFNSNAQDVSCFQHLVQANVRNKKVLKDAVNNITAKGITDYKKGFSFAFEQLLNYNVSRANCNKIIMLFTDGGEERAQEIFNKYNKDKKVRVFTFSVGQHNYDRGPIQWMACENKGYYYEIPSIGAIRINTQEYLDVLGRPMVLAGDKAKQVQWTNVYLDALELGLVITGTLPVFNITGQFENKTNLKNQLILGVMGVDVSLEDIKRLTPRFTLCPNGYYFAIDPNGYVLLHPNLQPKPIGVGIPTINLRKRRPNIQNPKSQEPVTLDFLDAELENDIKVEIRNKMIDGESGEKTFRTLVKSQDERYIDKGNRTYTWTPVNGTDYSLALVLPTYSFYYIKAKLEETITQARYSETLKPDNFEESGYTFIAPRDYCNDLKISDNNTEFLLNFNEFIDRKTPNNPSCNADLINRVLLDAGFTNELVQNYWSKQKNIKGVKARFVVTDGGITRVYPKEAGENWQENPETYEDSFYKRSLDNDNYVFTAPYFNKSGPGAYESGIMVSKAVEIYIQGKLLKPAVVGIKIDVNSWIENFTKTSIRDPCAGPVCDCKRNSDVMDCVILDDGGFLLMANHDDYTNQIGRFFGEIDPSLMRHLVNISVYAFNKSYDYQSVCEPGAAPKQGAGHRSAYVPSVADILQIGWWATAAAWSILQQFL
T1 sequence (P54289 947-1103 partner limits assumed): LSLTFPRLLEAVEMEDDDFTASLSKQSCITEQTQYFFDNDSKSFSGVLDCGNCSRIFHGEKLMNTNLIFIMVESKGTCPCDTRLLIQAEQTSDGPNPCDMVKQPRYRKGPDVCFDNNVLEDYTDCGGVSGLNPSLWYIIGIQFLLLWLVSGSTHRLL
Description: FLIPR assay (TSA201 cells stably transfected with human Cav2.2 and human Kir2.3, FLUO-4 Ca2+ signal, KCl depolarization). In kind it is cell-based. To be noted: 70 mM KCl depolarization, average value. How it is done:
TSA201 cells stably transfected with human Cav2.2 (composed of the subunits α1, β3 and α2δ) and human Kir2.3 to enhance the FLIPR Ca^2+ signal were used. These cells were plated on 384-well collagen-coated plates (BD Bioscience, Franklin Lakes, N.J.) at a density of 2×10^4 cells/well one day prior to the FLIPR assay. […] Culture media is removed and replaced with 25 μl of the FLUO-4 dye solution and incubated for one hour at room temperature. The cell plate is then placed on the FLIPR where the dye is aspirated off and replaced with 25 μl of HBSS (Invitrogen, Carlsbad, Calif.). The HBSS is then aspirated and replaced with […] of compound which is diluted in HBSS with 1% DMSO. Compounds are incubated on the cells for 15 minutes. The cells are then depolarized with 25 μl of 140 mM KCl solution (also containing 2 mM CaCl2 and 10 mM HEPES). The final concentration of KCl on the cells is 70 mM.
`CC(C)CNc1nc(CN(C(=O)C(C)(C)C)c2ccc(F)cc2)cs1` [Compound 161, N-(4-fluorophenyl)-N-{[2-(isobutylamino)-1,3-thiazol-4-yl]methyl}-2,2-dimethylpropanamide]: the midpoint of inhibition, the IC50, lay at 2.7 µM.
`CC(C)(C)C(=O)N(Cc1csc(N2C[C@@H]3C[C@H]2CN3)n1)c1ccc(F)cc1` [Compound 162, N-({2-[(1S,4S)-2,5-diazabicycl[2.2.1]hept-2-yl]-1,3-thiazol-4-yl}methyl)-N-(4-fluorophenyl)-2,2-dimethylpropanamide] gave an IC50 of 11 µM.
Compound `CCCNc1nc(CN(C(=O)C(C)(C)C)c2ccc(F)cc2)cs1` [Compound 163, N-(4-fluorophenyl)-2,2-dimethyl-N-{[2-(propylamino)-1,3-thiazol-4-yl]methyl}propanamide] yielded a concentration for half-maximal inhibition (IC50) of 7.7 µM. This IC50 and that of the compound before are within 1.5-fold of each other.
With `CN(C)c1nc(CN(C(=O)C(C)(C)C)c2ccc(F)cc2)cs1` [Compound 164, N-{[2-(dimethylamino)-1,3-thiazol-4-yl]methyl}-N-(4-fluorophenyl)-2,2-dimethylpropanamide] the figure was 4.75 µM; with `CC(C)(C)C(=O)N(Cc1csc(N2CCN(CCc3ccccc3)CC2)n1)c1ccc(F)cc1` [Compound 165, N-(4-fluroophenyl)-2,2-dimethyl-N-({2-[4-(2-phenylethyl)piperazin-1-yl]--1,3-thiazol-4-yl}methyl)propanamide], 3.6 µM; with `CN(C)CCCN1CCN(c2nc(CN(C(=O)C(C)(C)C)c3ccc(F)cc3)cs2)CC1` [Compound 166, N-[(2-{4-[3-(dimethylamino)propyl]piperazin-1-yl}-1,3-thiazol-4-yl)methyl]-N-(4-fluorophenyl)-2,2-dimethylpropanamide], 19.8 µM.
The compound `CC(C)(C)C(=O)N(Cc1csc(N2CCN(C(c3ccccc3)c3ccccc3)CC2)n1)c1ccc(F)cc1` [Compound 167, N-({2-[4-(diphenylmethyl)piperazin-1-yl]-1,3-thiazol-4-yl}methyl)-N-(4-fluroophenyl)-2,2-dimethylpropanamide] showed an IC50 of 13.3 µM.
Compound `CCN(c1nc(CN(C(=O)C(C)(C)C)c2ccccc2)cs1)C1CC1` [Compound 168, N-({2-[cyclopropyl(ethyl)amino]-1,3-thiazol-4-yl}methyl)-2,2-dimethyl-N-phenylpropanamide] displayed an IC50 of 5.1 µM. This IC50 is about 2.6-fold lower than that of the compound before.
To `CCN(c1nc(CN(C(=O)C(C)(C)C)c2ccccc2F)cs1)C1CC1` [Compound 169, N-({2-[cyclopropyl(ethyl)amino]-1,3-thiazol-4-yl}methyl)-N-(2-fluorophenyl)-2,2-dimethylpropanamide] belongs 5.7 µM.
For `CCN(c1nc(CN(C(=O)C(C)(C)C)c2cccc(F)c2)cs1)C1CC1` [Compound 170, N-({2-[cyclopropyl(ethyl)amino]-1,3-thiazol-4-yl}methyl)-N-(3-fluorophenyl)-2,2-dimethylpropanamide], the IC50 came out at 3.9 µM. This IC50 and that of the compound before are within 1.5-fold of each other.
With `CCN(c1nc(CN(C(=O)C(C)(C)C)c2ccccc2C)cs1)C1CC1` [Compound 171, N-({2-[cyclopropyl(ethyl)amino]-1,3-thiazol-4-yl}methyl)-2,2-dimethyl-N-(2-methylphenyl)propanamide] the figure was 6.5 µM; with `CCN(c1nc(CN(C(=O)C(C)(C)C)c2cccc(C)c2)cs1)C1CC1` [Compound 172, N-({2-[cyclopropyl(ethyl)amino]-1,3-thiazol-4-yl}methyl)-2,2-dimethyl-N-(3-methylphenyl)propanamide], 4.3 µM.
`CCN(c1nc(CN(C(=O)C(C)(C)C)c2ccc(C)cc2)cs1)C1CC1` [Compound 173, N-({2-[cyclopropyl(ethyl)amino]-1,3-thiazol-4-yl}methyl)-2,2-dimethyl-N-(4-methylphenyl)propanamide] had an IC50 of 3.8 µM.
`CCN(c1nc(CN(C(=O)C(C)(C)C)c2ccccc2OC)cs1)C1CC1` [Compound 174, N-({2-[cyclopropyl(ethyl)amino]-1,3-thiazol-4-yl}methyl)-N-(2-methoxyphenyl)-2,2-dimethylpropanamide] yielded an IC50 of 3.8 µM.
Turning to `CCN(c1nc(CN(C(=O)C(C)(C)C)c2ccc(OC)cc2)cs1)C1CC1` [Compound 175, N-({2-[cyclopropyl(ethyl)amino]-1,3-thiazol-4-yl}methyl)-N-(4-methoxyphenyl)-2,2-dimethylpropanamide], inhibition was half-maximal at 3.6 µM (IC50).
`CCN(c1nc(CN(C(=O)C(C)(C)C)c2cccc3c2CCCC3)cs1)C1CC1` [Compound 176, N-({2-[cyclopropyl(ethyl)amino]-1,3-thiazol-4-yl}methyl)-2,2-dimethyl-N-(5,6,7,8-tetrahydronaphthalen-1-yl)propanamide]: 7.1 µM corresponded to half-maximal inhibition (IC50). Against the preceding compound, the IC50 is about 2-fold higher.
With `CC(C)(C)C(=O)N(Cc1csc(N2CCN(Cc3ccccc3)CC2)n1)c1ccc(F)cc1` [Compound 177, N-{[2-(4-benzylpiperazin-1-yl)-1,3-thiazol-4-yl]methyl}-N-(4-fluorophenyl)-2,2-dimethylpropanamide], the IC50 is 9.3 µM.
To `CN(C)CCN1CCN(c2nc(CN(C(=O)C(C)(C)C)c3ccc(F)cc3)cs2)CC1` [Compound 178, N-[(2-{4-[2-(dimethylamino)ethyl]piperazin-1-yl}-1,3-thiazol-4-yl)methyl]-N-(4-fluorophenyl)-2,2-dimethylpropanamide] belongs 19.7 µM; to `CC(C)(C)C(=O)N(Cc1csc(N(c2ccccc2)c2ccccc2)n1)c1ccc(F)cc1` [Compound 179, N-{[2-(diphenylamino)-1,3-thiazol-4-yl]methyl}-N-(4-fluorophenyl)-2,2-dimethylpropanamide], 3.9 µM.
To `CC(C)(C)C(=O)N(Cc1csc(-c2ccccc2)n1)c1ccc(F)cc1` [Compound 180, N-(4-fluorophenyl)-2,2-dimethyl-N-[(2-phenyl-1,3-thiazol-4-yl)methyl]propanamide] belongs 7.9 µM.
The compound `CC(C)(C)C(=O)N(Cc1csc(N2CCC3(CC2)OCCO3)n1)c1ccc(F)cc1` [Compound 181, N-{[2-(1,4-dioxa-8-azaspiro[4.5]dec-8-yl)-1,3-thiazol-4-yl]methyl}-N-(4-fluorophenyl)-2,2-dimethylpropanamide] displayed an IC50 of 2.7 µM.
With `CC(C)(C)C(=O)N(Cc1csc(N2CCC(O)CC2)n1)c1ccc(F)cc1` [Compound 182, N-(4-fluorophenyl)-N-{[2-(4-hydroxypiperidin-1-yl)-1,3-thiazol-4-yl]methyl}-2,2-dimethylpropanamide] the figure was 8.1 µM; with `CC(C)(C)C(=O)N(Cc1csc(N2CCCCCC2)n1)c1ccc(F)cc1` [Compound 183, N-[(2-azepan-1-yl-1,3-thiazol-4-yl)methyl]-N-(4-fluorophenyl)-2,2-dimethylpropanamide], 2.3 µM; with `CC(C)(C)C(=O)N(Cc1csc(N2CCCCCCC2)n1)c1ccc(F)cc1` [Compound 184, N-[(2-azocan-1-yl-1,3-thiazol-4-yl)methyl]-N-(4-fluorophenyl)-2,2-dimethylpropanamide], 1.6 µM.
With `CC(C)(C)C(=O)N(Cc1csc(N2CCC(CO)CC2)n1)c1ccc(F)cc1` [Compound 185, N-(4-fluorophenyl)-N-({2-[4-(hydroxymethyl)piperidin-1-yl]-1,3-thiazol-4-yl}methyl)-2,2-dimethylpropanamide] the figure was 2.5 µM; with `CC(C)(C)C(=O)N(Cc1csc(N2CCCC(O)C2)n1)c1ccc(F)cc1` (stereo not drawn) [Compound 186, N-(4-fluroophenyl)-N-{[2-(3-hydroxypiperidin-1-yl)-1,3-thiazol-4-yl]methyl}-2,2-dimethylpropanamide], 5.6 µM.
`CC(C)(C)C(=O)N(Cc1csc(N2CCCC(CO)C2)n1)c1ccc(F)cc1` (stereo not drawn) [Compound 187, N-(4-fluorophenyl)-N-({2-[3-(hydroxymethyl)piperidin-1-yl]-1,3-thiazol-4-yl}methyl)-2,2-dimethylpropanamide] displayed a half-inhibitory concentration (IC50) of 3 µM.
Turning to `CC(C)(C)C(=O)N(Cc1csc(N2CCC(C#N)CC2)n1)c1ccc(F)cc1` [Compound 188, N-{[2-(4-cyanopiperidin-1-yl)-1,3-thiazol-4-yl]methyl}-N-(4-fluorophenyl)-2,2-dimethylpropanamide], the IC50 was 3.8 µM.
With `CC(C)(C)C(=O)N(Cc1csc(N2CCSCC2)n1)c1ccc(F)cc1` [Compound 189, N-(4-fluorophenyl)-2,2-dimethyl-N-[(2-thiomorpholin-4-yl-1,3-thiazol-4-yl)methyl]propanamide] the figure was 1.6 µM; with `CC1CC(C)CN(c2nc(CN(C(=O)C(C)(C)C)c3ccc(F)cc3)cs2)C1` (stereo not drawn) [Compound 190, N-{[2-(3,5-dimethylpiperidin-1-yl)-1,3-thiazol-4-yl]methyl}-N-(4-fluorophenyl)-2,2-dimethylpropanamide], 2.2 µM.
The compound `CC1CCN(c2nc(CN(C(=O)C(C)(C)C)c3ccc(F)cc3)cs2)CC1` [Compound 192, N-(4-fluorophenyl)-2,2-dimethyl-N-{[2-(4-methylpiperidin-1-yl)-1,3-thiazol-4-yl]methyl}propanamide] showed an IC50 of 1.9 µM.
With `CC(C)(C)C(=O)N(Cc1csc(N2CCC(c3ccccc3)CC2)n1)c1ccc(F)cc1` [Compound 193, N-(4-fluorophenyl)-2,2-dimethyl-N-{[2-(4-phenylpiperidin-1-yl)-1,3-thiazol-4-yl]methyl}propanamide] the figure was 3.1 µM; with `CC(C)(C)C(=O)N(Cc1cnc(N2CCCCC2)s1)c1ccc(F)cc1` [Compound 194, N-(4-fluorophenyl)-2,2-dimethyl-N-[(2-piperidin-1-yl-1,3-thiazol-5-yl)methyl]propanamide], 3.2 µM.

As usually defined, the IC50 is the concentration needed to halve the response being measured. A lower IC50 goes with greater potency in that assay.

(Values after US20100267697A1, “ION CHANNEL MODULATORS” (Wyeth, priority 2006, published 2010).)
